In general, IC50 refers to the midpoint of a concentration-inhibition curve. Read a low IC50 as inhibition by little substance.

This experiment has as its target Hepatocyte growth factor receptor (Homo sapiens, UniProt P08581). As to the kind of experiment: Inhibition of c-Met (unknown origin) using poly (Glu, Tyr) 4:1 after 30 mins by HTRF assay. (In general: Time-resolved FRET reads energy transfer from a long-lived donor to a nearby acceptor.)
Turning to `COc1cc2c(Oc3ccc(N=Cc4c(O)n(-c5ccc(C)cc5)c(=O)[nH]c4=O)cc3F)ccnc2cc1OCCCN1CCN(C)CC1`, the IC50 is 2.7 nM. For `COc1cc2c(Oc3ccc(N=Cc4c(O)n(-c5ccc(F)cc5F)c(=O)[nH]c4=O)cc3F)ccnc2cc1OCCCN1CCCC1` the value was 12 nM. The result for `COc1cc2c(Oc3ccc(N=Cc4c(O)n(-c5ccc(F)cc5)c(=O)[nH]c4=O)cc3F)ccnc2cc1OCCCN1CCCC1` reads 2.7 nM; that for `COc1cc2c(Oc3ccc(N=Cc4c(O)n(-c5ccc(F)cc5F)c(=O)[nH]c4=O)cc3F)ccnc2cc1OCCCN1CCOCC1`, 12 nM.

These data come from BindingDB's records for doi:10.1016/j.bmc.2014.01.014 (Shenyang Pharmaceutical University, 2014).
